{"source": "ChEMBL document CHEMBL1121935", "about": "“Syntheses and activities of antioxidant derivatives of retinoic acids” (1982)", "assay_type_in_all_cases": "functional, Cricetulus griseus", "conditions_in_all_cases": "Epithelial cell", "key": {"Cricetinae gen. sp. [1]": {"tested_on": "Cricetinae gen. sp.", "assay": "In vitro inhibitory activity tested for reverse keratinization of epithelial cells in hamster trachael organ assay at 10E-9 M concentration; (Activity culture/total culture 1/6)"}, "Cricetinae gen. sp. [2]": {"tested_on": "Cricetinae gen. sp.", "assay": "In vitro inhibitory activity tested for reverse keratinization of epithelial cells in hamster trachael organ assay at 10E-9 M concentration; (Activity culture/total culture 419/474)"}, "Cricetinae gen. sp. [3]": {"tested_on": "Cricetinae gen. sp.", "assay": "In vitro inhibitory activity tested for reverse keratinization of epithelial cells in hamster trachael organ assay at 10E-9 M concentration; (Activity culture/total culture 2/7)"}, "Cricetinae gen. sp. [4]": {"tested_on": "Cricetinae gen. sp.", "assay": "In vitro inhibitory activity tested for reverse keratinization of epithelial cells in hamster trachael organ assay at 10E-9 M concentration; (Activity culture/total culture 1/7)"}}, "data": [{"smiles": "CC1=C(/C=C/C(C)=C/C=C/C(C)=C/C(=O)Oc2c(C)c(C)c3c(c2C)CC[C@@](C)(CCC[C@H](C)CCC[C@H](C)CCCC(C)C)O3)C(C)(C)CCC1", "values": [{"measurement": "inhibition at 0.001 µM", "setting": "Cricetinae gen. sp. [1]", "result": 16.7, "unit": "%"}]}, {"smiles": "CC1=C(/C=C/C(C)=C/C=C/C(C)=C/C(=O)O)C(C)(C)CCC1", "note": "[TRETINOIN]", "values": [{"measurement": "inhibition at 0.001 µM", "setting": "Cricetinae gen. sp. [2]", "result": 88.4, "unit": "%"}]}, {"smiles": "CCOc1ccc2c(c1)C(C)=CC(C)(C)N2C(=O)/C=C(C)/C=C/C=C(C)/C=C/C1=C(C)CCCC1(C)C", "values": [{"measurement": "inhibition at 0.001 µM", "setting": "Cricetinae gen. sp. [3]", "result": 28.6, "unit": "%"}]}, {"smiles": "CC1=C(/C=C/C(C)=C/C=C/C(C)=C/C(=O)Oc2ccc(O)c(C(C)(C)C)c2)C(C)(C)CCC1", "values": [{"measurement": "inhibition at 0.001 µM", "setting": "Cricetinae gen. sp. [1]", "result": 16.7, "unit": "%"}]}, {"smiles": "CC1=C(/C=C/C(C)=C/C=C/C(C)=C/C(=O)Oc2ccc(O)cc2C(C)(C)C)C(C)(C)CCC1", "values": [{"measurement": "inhibition at 0.001 µM", "setting": "Cricetinae gen. sp. [4]", "result": 14.3, "unit": "%"}]}]}
